From ChEMBL document CHEMBL4814070 (Eur J Med Chem, 2021)
pIC50: −log10 of the molar value. Calls of active or inactive are those of the source. The rule behind the calls is not given here.

Key:
[1] = biological target: T1, Glutamate NMDA receptor; GRIN1/GRIN2A (Homo sapiens, UniProt Q05586+Q12879)
Description: Inhibition of human GluN1a/GluN2A receptor expressed in HEK293 cells assessed as relative inhibition of glycine/glutamate-induced current measured at +40 mV holding potential by whole-cell patch clamp method

[2] = biological target: Acetylcholinesterase (Homo sapiens, UniProt P22303)
Description: Inhibition of human recombinant AChE assessed as reduction in cholinesterase activity using acetylthiocholine iodide as substrate by Ellman's method

[3] = biological target: T1, Glutamate NMDA receptor; GRIN1/GRIN2A; assay: Inhibition of human GluN1a/GluN2A receptor expressed in HEK293 cells assessed as relative inhibition of glycine/glutamate-induced current at 100 uM measured at +40 mV holding potential by whole-cell patch clamp method; assay type: cell-based
[4] = Toxicity in Wistar rat assessed as prepulse inhibition of acoustic startle response at 1 to 5 mg/kg, ip measured for 10 mins by open field test relative to control; assay type: organism-based; settings: in vivo, dose 1-5 mg/kg
[5] = biological target: T2, Glutamate NMDA receptor; GRIN1/GRIN2B (Homo sapiens, UniProt Q05586+Q13224)
T2 sequence (Q13224 whole entry, looked up, other chains not shown): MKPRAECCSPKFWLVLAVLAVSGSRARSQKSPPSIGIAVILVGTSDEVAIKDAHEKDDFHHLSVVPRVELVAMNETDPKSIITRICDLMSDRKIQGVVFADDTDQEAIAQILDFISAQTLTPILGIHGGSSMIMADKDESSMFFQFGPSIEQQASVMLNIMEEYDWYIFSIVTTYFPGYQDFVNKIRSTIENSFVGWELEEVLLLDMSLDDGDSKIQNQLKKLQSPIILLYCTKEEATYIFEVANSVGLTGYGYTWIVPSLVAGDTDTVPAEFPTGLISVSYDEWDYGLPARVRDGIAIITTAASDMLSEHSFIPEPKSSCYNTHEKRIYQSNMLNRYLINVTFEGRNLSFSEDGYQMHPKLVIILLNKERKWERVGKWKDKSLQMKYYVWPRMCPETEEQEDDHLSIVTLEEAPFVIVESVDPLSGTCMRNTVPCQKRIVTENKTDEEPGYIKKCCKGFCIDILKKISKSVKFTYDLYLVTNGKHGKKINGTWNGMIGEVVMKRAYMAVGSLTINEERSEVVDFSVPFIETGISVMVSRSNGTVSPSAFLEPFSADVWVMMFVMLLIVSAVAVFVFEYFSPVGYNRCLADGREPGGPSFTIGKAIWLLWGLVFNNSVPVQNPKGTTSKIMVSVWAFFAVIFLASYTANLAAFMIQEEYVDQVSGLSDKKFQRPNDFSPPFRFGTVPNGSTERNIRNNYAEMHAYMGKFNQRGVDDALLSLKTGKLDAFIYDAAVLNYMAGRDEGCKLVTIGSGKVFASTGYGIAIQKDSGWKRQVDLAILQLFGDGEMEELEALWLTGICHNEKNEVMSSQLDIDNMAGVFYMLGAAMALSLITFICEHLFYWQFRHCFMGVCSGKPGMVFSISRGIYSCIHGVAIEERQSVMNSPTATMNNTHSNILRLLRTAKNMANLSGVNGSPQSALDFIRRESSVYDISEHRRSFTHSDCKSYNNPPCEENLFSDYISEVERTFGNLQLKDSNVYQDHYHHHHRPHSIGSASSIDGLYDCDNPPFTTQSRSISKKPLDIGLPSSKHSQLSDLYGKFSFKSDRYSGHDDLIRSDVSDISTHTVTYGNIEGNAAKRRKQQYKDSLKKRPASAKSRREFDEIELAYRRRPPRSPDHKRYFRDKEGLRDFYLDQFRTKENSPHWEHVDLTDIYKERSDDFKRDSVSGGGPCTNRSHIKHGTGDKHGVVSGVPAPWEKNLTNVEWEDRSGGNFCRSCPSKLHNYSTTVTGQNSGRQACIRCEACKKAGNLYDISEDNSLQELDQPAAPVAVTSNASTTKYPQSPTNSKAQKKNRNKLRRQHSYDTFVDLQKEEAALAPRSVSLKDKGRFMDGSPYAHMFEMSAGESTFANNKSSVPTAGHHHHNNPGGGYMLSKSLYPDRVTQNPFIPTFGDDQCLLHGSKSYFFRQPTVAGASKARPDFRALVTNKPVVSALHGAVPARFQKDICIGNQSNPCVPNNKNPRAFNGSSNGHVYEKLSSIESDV
Description: Inhibition of human GluN1a/GluN2B receptor expressed in HEK293 cells assessed as inhibition of glycine/glutamate-induced current measured at -60 mV holding potential by whole-cell patch clamp method

[6] = Drug uptake in ICR mouse plasma at 5 mg/kg, ip measured after 60 mins by HPLC-MS analysis; assay type: ADME, organism-based
[7] = biological target: T1, Glutamate NMDA receptor; GRIN1/GRIN2A; remark: listed apart in the source
Description: Inhibition of human GluN1a/GluN2A receptor expressed in HEK293 cells assessed as inhibition of glycine/glutamate-induced current measured at -60 mV holding potential by whole-cell patch clamp method

[8] = Ratio of drug level in brain to plasma in ICR mouse at 5 mg/kg, ip measured after 15 mins by HPLC-MS analysis; assay type: ADME, organism-based; settings: brain and plasma, read-out: BBR
[9] = Drug uptake in ICR mouse brain at 5 mg/kg, ip measured after 60 mins by HPLC-MS analysis; assay type: ADME, organism-based; settings: read-out: Drug uptake
[10] = Drug uptake in ICR mouse plasma at 5 mg/kg, ip measured after 15 mins by HPLC-MS analysis; assay type: ADME, organism-based
[11] = biological target: T3, Cholinesterase (Homo sapiens, UniProt P06276)
T3 sequence (P06276 whole entry): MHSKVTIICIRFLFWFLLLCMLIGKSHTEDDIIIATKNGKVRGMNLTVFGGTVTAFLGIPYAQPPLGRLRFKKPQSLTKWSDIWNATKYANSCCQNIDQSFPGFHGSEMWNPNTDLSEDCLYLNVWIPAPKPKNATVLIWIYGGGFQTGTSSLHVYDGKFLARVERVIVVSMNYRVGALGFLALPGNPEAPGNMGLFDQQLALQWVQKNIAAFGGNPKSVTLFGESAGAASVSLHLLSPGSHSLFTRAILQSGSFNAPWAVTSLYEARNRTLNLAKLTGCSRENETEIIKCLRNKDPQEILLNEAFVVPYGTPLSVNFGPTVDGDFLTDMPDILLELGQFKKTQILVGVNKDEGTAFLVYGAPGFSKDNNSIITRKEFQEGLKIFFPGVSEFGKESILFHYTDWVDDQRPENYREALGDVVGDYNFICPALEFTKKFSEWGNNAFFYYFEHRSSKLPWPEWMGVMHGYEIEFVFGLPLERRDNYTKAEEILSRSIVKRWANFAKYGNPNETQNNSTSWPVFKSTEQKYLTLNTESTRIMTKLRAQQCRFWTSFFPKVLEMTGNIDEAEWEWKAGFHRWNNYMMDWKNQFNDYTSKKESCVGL
Description: Inhibition of human plasmatic BuChE assessed as reduction in cholinesterase activity by Ellman's method

[12] = Drug uptake in ICR mouse brain at 5 mg/kg, ip measured after 15 mins by HPLC-MS analysis; assay type: ADME, organism-based; settings: read-out: Drug uptake
[13] = system: Rattus norvegicus; assay: Reduction in total distance travelled in Wistar rat at 5 mg/kg, ip measured for 10 mins by open field test relative to control; assay type: functional, organism-based
[14] = biological target: T2, Glutamate NMDA receptor; GRIN1/GRIN2B; remark: listed apart in the source
Description: Inhibition of human GluN1a/GluN2B receptor expressed in HEK293 cells assessed as relative inhibition of glycine/glutamate-induced current measured at +40 mV holding potential by whole-cell patch clamp method

[15] = system: Rattus norvegicus; assay: Effect on spontaneous locomotory activity in Wistar rat at 1 mg/kg, ip measured for 10 mins by open field test; assay type: functional, organism-based
[16] = system: Rattus norvegicus; assay: Effect on spontaneous locomotory activity in Wistar rat at 5 mg/kg, ip measured for 10 mins by open field test; assay type: functional, organism-based
[17] = Toxicity in Wistar rat assessed as hyperlocomotion at 5 mg/kg, ip measured for 10 mins by open field test relative to control; assay type: organism-based; settings: in vivo
[18] = Toxicity in Wistar rat assessed as prepulse inhibition of acoustic startle response at 0.3 mg/kg, ip measured for 10 mins by open field test relative to control; assay type: organism-based; settings: in vivo
[19] = biological target: T3, Cholinesterase; assay: Inhibition of human plasmatic BuChE assessed as reduction in cholinesterase activity at 100 uM by Ellman's method

Acetylcholinesterase, sequence (P22303 whole entry): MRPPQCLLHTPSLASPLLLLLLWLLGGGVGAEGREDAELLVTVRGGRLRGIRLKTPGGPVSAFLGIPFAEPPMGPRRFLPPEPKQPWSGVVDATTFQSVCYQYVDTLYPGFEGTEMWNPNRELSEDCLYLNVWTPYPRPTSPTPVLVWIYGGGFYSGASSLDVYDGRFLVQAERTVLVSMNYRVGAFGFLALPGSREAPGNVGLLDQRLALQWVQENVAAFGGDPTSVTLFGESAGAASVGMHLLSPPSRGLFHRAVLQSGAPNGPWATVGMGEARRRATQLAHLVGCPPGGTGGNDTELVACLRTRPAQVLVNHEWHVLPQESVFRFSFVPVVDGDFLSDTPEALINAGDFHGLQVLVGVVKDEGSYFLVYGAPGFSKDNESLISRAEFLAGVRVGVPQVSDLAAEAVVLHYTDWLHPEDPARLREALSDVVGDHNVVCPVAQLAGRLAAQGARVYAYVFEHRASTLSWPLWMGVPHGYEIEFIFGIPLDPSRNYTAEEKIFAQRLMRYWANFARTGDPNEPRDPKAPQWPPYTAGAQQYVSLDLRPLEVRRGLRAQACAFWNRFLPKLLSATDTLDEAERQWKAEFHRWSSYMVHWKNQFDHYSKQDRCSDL

## Cl.Nc1c2c(nc3ccc(Br)cc13)CCC2
[1]
  pIC50: 4.29
[2]
  pIC50: 5.24
[3]
  inhibition: 75.3%
[4]
  Activity: Non-Toxic
[5]
  pIC50: 5.16
[6]
  concentration at 1 h: 154 nM
[7]
  pIC50: 5.21
[8]
  Kp at 0.25 h: 47
[9]
  concentration at 1 h: 116 nM
[10]
  concentration at 0.25 h: 2520 nM
[11]
  pIC50: 4.77
[12]
  concentration at 0.25 h: 1180 nM
[13]
  Activity: Active
[14]
  pIC50: 4.64
[15]
  Activity: inactive

## Cc1ccc2nc3c(c(N)c2c1)CCCC3
[2]
  pIC50: 4.81
[3]
  inhibition: 18.5%
[5]
  pIC50: 4.88
[7]
  pIC50: 4.91
[11]
  pIC50: 4.86

## Nc1c2c(nc3c(Br)cc(Br)cc13)CCCC2
[2]
  pIC50: 5.29
[3]
  inhibition: 67.7%
[5]
  pIC50: 4.73
[7]
  pIC50: 4.81
[11]
  pIC50: 4.49

## COc1ccc2nc3c(c(N)c2c1)CCCC3.Cl
[1]
  pIC50: 4.31
[3]
  inhibition: 77.6%
[5]
  pIC50: 5.14
[6]
  concentration at 1 h: 207 nM
[7]
  pIC50: 5.33
[9]
  concentration at 1 h: 326 nM
[10]
  concentration at 0.25 h: 1670 nM
[12]
  concentration at 0.25 h: 2320 nM
[14]
  pIC50: 4.29

## Cc1cccc2nc3c(c(N)c12)CCC3
[2]
  pIC50: 6.38
[3]
  inhibition: 22%
[5]
  pIC50: 4.78
[7]
  pIC50: 4.67
[11]
  pIC50: 6.33

## Cl.Nc1c2c(nc3cccc(Cl)c13)CCCCC2
[1]
  pIC50: 3.95
[2]
  pIC50: 3.65
[16]
  Activity: inactive
[3]
  inhibition: 46.7%
[4]
  Activity: Non-Toxic
[5]
  pIC50: 4.66
[6]
  concentration at 1 h: 185 nM
[7]
  pIC50: 5.14
[8]
  Kp at 0.25 h: 33
[9]
  concentration at 1 h: 32 nM
[10]
  concentration at 0.25 h: 2290 nM
[11]
  pIC50: 6.51
[12]
  concentration at 0.25 h: 762 nM
[13]
  Activity: Active
[14]
  pIC50: 3.83
[15]
  Activity: inactive
[17]
  Activity: Toxic

## Cc1ccc2c(N)c3c(nc2c1)CCCC3.Cl
[1]
  pIC50: 4.01
[2]
  pIC50: 7.14
[3]
  inhibition: 51.3%
[4]
  Activity: Non-Toxic
[5]
  pIC50: 5.11
[6]
  concentration at 1 h: 87 nM
[7]
  pIC50: 4.77
[8]
  Kp at 0.25 h: 56
[9]
  concentration at 1 h: 251 nM
[10]
  concentration at 0.25 h: 1300 nM
[11]
  pIC50: 5.54
[12]
  concentration at 0.25 h: 731 nM
[13]
  Activity: Active
[14]
  pIC50: 4.38
[15]
  Activity: inactive

## COc1ccc2nc3c(c(N)c2c1)CCC3
[1]
  pIC50: 4.18
[2]
  pIC50: 5.09
[3]
  inhibition: 66.1%
[5]
  pIC50: 4.84
[7]
  pIC50: 5.38
[11]
  pIC50: 4.97
[14]
  pIC50: 4.05

## Nc1c2c(nc3c(Cl)cc(Cl)cc13)CCC2
[2]
  pIC50: 4.88
[3]
  inhibition: 33.5%
[5]
  pIC50: 4.67
[7]
  pIC50: 4.83
[11]
  pIC50: 4.75

## Cl.Nc1c2c(nc3ccc(Br)cc13)CCCC2
[1]
  pIC50: 4.34
[2]
  pIC50: 5.32
[3]
  inhibition: 79.3%
[4]
  Activity: Non-Toxic
[5]
  pIC50: 5.11
[6]
  concentration at 1 h: 170 nM
[7]
  pIC50: 5.18
[8]
  Kp at 0.25 h: 103
[9]
  concentration at 1 h: 218 nM
[10]
  concentration at 0.25 h: 1330 nM
[11]
  pIC50: 4.68
[12]
  concentration at 0.25 h: 1380 nM
[13]
  Activity: Active
[14]
  pIC50: 4.89
[15]
  Activity: inactive

## COc1ccc2nc3c(c(N)c2c1)CCCCC3
[2]
  pIC50: 4.75
[3]
  inhibition: 53.6%
[5]
  pIC50: 5.12
[7]
  pIC50: 4.70
[11]
  pIC50: 5.36

## Nc1c2c(nc3c(Cl)cc(Cl)cc13)CCCCC2
[2]
  pIC50: 5.04
[3]
  inhibition: 38.5%
[5]
  pIC50: 4.42
[7]
  pIC50: 4.70
[11]
  pIC50: 4.62

## C[C@]12N[C@H](Cc3ccccc31)c1ccccc12 [DIZOCILPINE]
[18]
  Activity: Toxic

## Nc1c2c(nc3cccc(Cl)c13)CCCC2
[2]
  pIC50: 7.48
[3]
  inhibition: 35%
[5]
  pIC50: 4.62
[7]
  pIC50: 4.71
[11]
  pIC50: 7.21

## Nc1c2c(nc3cccc(Cl)c13)CCC2
[19]
  inhibition: 6%
[3]
  inhibition: 24.5%
[5]
  pIC50: 4.35
[7]
  pIC50: 4.57

## Nc1c2c(nc3ccc(Cl)cc13)CCCC2
[2]
  pIC50: 5.71
[3]
  inhibition: 47.5%
[5]
  pIC50: 5.01
[7]
  pIC50: 4.83
[11]
  pIC50: 5.17

## Nc1c2c(nc3ccc(F)cc13)CCCCC2
[2]
  pIC50: 6.20
[3]
  inhibition: 38.5%
[5]
  pIC50: 4.70
[7]
  pIC50: 4.84
[11]
  pIC50: 6.24

## Cc1ccc2nc3c(c(N)c2c1)CCCCC3
[2]
  pIC50: 4.65
[3]
  inhibition: 40.1%
[5]
  pIC50: 4.78
[7]
  pIC50: 4.57
[11]
  pIC50: 4.97

## Cc1cccc2nc3c(c(N)c12)CCCCC3
[2]
  pIC50: 6.59
[3]
  inhibition: 54.3%
[5]
  pIC50: 4.76
[7]
  pIC50: 4.90
[11]
  pIC50: 6.97

## Nc1c2c(nc3ccc(Br)cc13)CCCCC2
[2]
  pIC50: 4.86
[3]
  inhibition: 57.7%
[5]
  pIC50: 4.93
[7]
  pIC50: 4.86
[11]
  pIC50: 4.82

## Nc1c2c(nc3ccc(Cl)cc13)CCCCC2
[2]
  pIC50: 5.07
[3]
  inhibition: 43%
[5]
  pIC50: 4.92
[7]
  pIC50: 4.69
[11]
  pIC50: 4.99

## Nc1c2c(nc3ccc(F)cc13)CCC2
[2]
  pIC50: 6.18
[3]
  inhibition: 28.7%
[5]
  pIC50: 4.52
[7]
  pIC50: 4.55
[11]
  pIC50: 5.72

## Cc1ccc2nc3c(c(N)c2c1)CCC3
[2]
  pIC50: 5.00
[3]
  inhibition: 30.8%
[5]
  pIC50: 4.70
[7]
  pIC50: 4.69
[11]
  pIC50: 4.63

## Nc1c2c(nc3ccc(F)cc13)CCCC2
[2]
  pIC50: 6.01
[3]
  inhibition: 41.9%
[5]
  pIC50: 4.67
[7]
  pIC50: 4.81
[11]
  pIC50: 6.12

## Cc1ccc2c(N)c3c(nc2c1)CCC3
[2]
  pIC50: 6.46
[3]
  inhibition: 53.6%
[5]
  pIC50: 4.81
[7]
  pIC50: 5.11
[11]
  pIC50: 5.07

## Nc1c2c(nc3c(Br)cc(Br)cc13)CCCCC2
[2]
  pIC50: 4.82
[3]
  inhibition: 80.7%
[5]
  pIC50: 4.57
[7]
  pIC50: 4.67
[11]
  pIC50: 4.05

## Cl.Nc1c2c(nc3ccc(Cl)cc13)CCC2
[1]
  pIC50: 4.07
[2]
  pIC50: 5.80
[3]
  inhibition: 56.5%
[4]
  Activity: Non-Toxic
[5]
  pIC50: 5.06
[6]
  concentration at 1 h: 389 nM
[7]
  pIC50: 4.68
[8]
  Kp at 0.25 h: 61
[9]
  concentration at 1 h: 173 nM
[10]
  concentration at 0.25 h: 1660 nM
[11]
  pIC50: 5.16
[12]
  concentration at 0.25 h: 1000 nM
[13]
  Activity: Active
[14]
  pIC50: 4.56
[15]
  Activity: inactive

## Nc1c2c(nc3c(Br)cc(Br)cc13)CCC2
[2]
  pIC50: 4.82
[19]
  inhibition: 34%
[3]
  inhibition: 55.7%
[5]
  pIC50: 4.77
[7]
  pIC50: 4.99

## Cc1cccc2nc3c(c(N)c12)CCCC3
[2]
  pIC50: 6.90
[3]
  inhibition: 40.5%
[5]
  pIC50: 4.85
[7]
  pIC50: 4.73
[11]
  pIC50: 6.31

## Cc1ccc2c(N)c3c(nc2c1)CCCCC3
[2]
  pIC50: 6.98
[3]
  inhibition: 50%
[5]
  pIC50: 5.03
[7]
  pIC50: 4.82
[11]
  pIC50: 6.00

## Nc1c2c(nc3c(Cl)cc(Cl)cc13)CCCC2
[2]
  pIC50: 5.36
[3]
  inhibition: 38.2%
[5]
  pIC50: 4.43
[7]
  pIC50: 4.62
[11]
  pIC50: 4.83
